Measurements from US20210154186A1, “COMPOSITIONS AND METHODS FOR INHIBITING DIHYDROOROTATE DEHYDROGENASE” (Clear Creek Bio, Inc., priority 2018, published 2021).
Read-outs that look alike come from different tables or passages of the source.

Legend:
[1] = test system: solid malignancies; conditions: 43 patients; patient with papillary carcinoma of the thyroid; cited from earlier work
[2] = target: DHODH (Homo sapiens, UniProt Q02127); conditions: for DHO plasma level threshold achieved: after a dose
[3] = mouse model of AML, daily administration of high doses; cited from earlier work
[4] = 650 mg/m^2 brequinar (days 1, 8 and 15) with 75 mg/m^2 cisplatin (day 1); cited from earlier work
[5] = test system: acute myeloid leukemia (AML); test: Clinical response of patients with AML to brequinar-containing composition; format: in vivo, human
[6] = test system: leukemia-initiating cell activity; conditions: mouse models of AML; only when elevated plasma levels are maintained for extended periods; cited from earlier work
[7] = target: DHODH (Mus musculus, UniProt O35435); test: DHO remaining in plasma of mice after brequinar 50 mg/kg (FIG. 6); conditions: at about 84 hours
[8] = Adverse events observed in subjects receiving brequinar intravenously once weekly; format: in vivo, human; conditions: 209 subjects, i.v. once week, median dose 1200 mg/m^2
[9] = Example 9, first patient, threshold 1,600 ng/mL
[10] = Example 10, second patient, threshold 2,900 ng/mL
[11] = Example 11, threshold 133 ng/mL

Chain of DHODH (Homo sapiens, UniProt Q02127) (Q02127 whole entry): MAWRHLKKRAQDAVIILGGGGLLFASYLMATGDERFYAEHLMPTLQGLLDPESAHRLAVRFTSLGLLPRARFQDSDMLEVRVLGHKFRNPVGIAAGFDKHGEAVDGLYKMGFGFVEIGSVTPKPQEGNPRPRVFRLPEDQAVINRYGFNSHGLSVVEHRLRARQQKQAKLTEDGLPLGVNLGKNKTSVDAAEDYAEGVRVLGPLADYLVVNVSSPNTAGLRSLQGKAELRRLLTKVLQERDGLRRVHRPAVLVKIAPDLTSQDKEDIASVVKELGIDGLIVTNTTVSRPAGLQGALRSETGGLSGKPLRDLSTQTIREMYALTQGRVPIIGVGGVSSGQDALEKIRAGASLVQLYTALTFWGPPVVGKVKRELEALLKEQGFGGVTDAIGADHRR
Chain of DHODH (Mus musculus, UniProt O35435) (O35435 whole entry): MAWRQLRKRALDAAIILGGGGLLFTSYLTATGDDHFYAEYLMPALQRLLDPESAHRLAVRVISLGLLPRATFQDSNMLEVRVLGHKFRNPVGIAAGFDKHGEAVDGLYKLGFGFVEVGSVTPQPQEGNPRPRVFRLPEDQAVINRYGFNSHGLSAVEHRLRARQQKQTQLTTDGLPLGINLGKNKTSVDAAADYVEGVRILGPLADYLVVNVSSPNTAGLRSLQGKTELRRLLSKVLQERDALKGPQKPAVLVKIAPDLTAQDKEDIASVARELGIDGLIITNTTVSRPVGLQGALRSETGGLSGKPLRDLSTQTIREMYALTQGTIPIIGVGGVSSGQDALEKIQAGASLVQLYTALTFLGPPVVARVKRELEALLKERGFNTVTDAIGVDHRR

In the case of Cc1c(-c2ccc(-c3ccccc3F)cc2)nc2ccc(F)cc2c1C(=O)O [Brequinar sodium], the tumour response observed [1] is listed as “One mixed response”.
In the case of Cc1c(-c2ccc(-c3ccccc3F)cc2)nc2ccc(F)cc2c1C(=O)O [Brequinar, 6-fluoro-2-(2′-fluoro-1,1′ biphenyl-4-yl)-3-methyl-4-quinoline carboxylic acid], the “DHO plasma level threshold achieved” value ([2]; Example 9, first patient with AML) is reported as 1,600 ng/mL, the “time remained above the DHO threshold” value [2, 9] is reported as 84 h and the “time to achieve the DHO plasma level threshold” value [2, 9] is reported as “less than 24 hours”. For the same compound, the “DHO plasma level threshold achieved” value ([2]; Example 10, second patient with AML) was 2,900 ng/mL, the “time remained above the DHO threshold” value [2, 10] was 84 h and the “time to achieve the DHO plasma level threshold” value [2, 10] was < 24 h. The “DHO plasma level threshold achieved” value ([2]; Example 11, patient with AML) was 133 ng/mL, the “time remained above the DHO threshold” value [2, 11] was 84 h and the “time to achieve the DHO plasma level threshold” value [2, 11] was “less than 2 hours”. For the same compound, the toxic effects [3] was “weight loss, anemia, and thrombocytopenia”, the “effect of the combination on individual drug pharmacokinetic parameters” value [4] was “without significant modifications of individual drug pharmacokinetic parameters” and the clinical response ([5]; Example 9, first patient, […], improvement of extramedullary hematopoiesis, shift to more differentiation in peripheral blasts) was “positive response”. For the same compound, the clinical response ([5]; Example 10, second patient, lowering of peripheral blasts, increase in absolute neutrophil count, greater differentiation of peripheral blasts) was “positive response”, the clinical response ([5]; Example 11, indicated by a trend towards differentiation of peripheral blasts) was “positive response” and the “effect on leukemia-initiating cell activity” value [6] was “decreases leukemia-initiating cell activity”. For the same compound, the “concentration of DHO remaining in the plasma” value [7] was “about 100 ng/mL”, the “All Body Systems: No. of Patients Experiencing the AE, 5y Max Grade 1” value [8] was 36 and the “All Body Systems: No. of Patients Experiencing the AE, 5y Max Grade 2” value [8] was 76. The “All Body Systems: No. of Patients Experiencing the AE, 5y Max Grade 3” value [8] was 55, the “All Body Systems: No. of Patients Experiencing the AE, 5y Max Grade 4” value [8] was 35 and the “Anemia: No. of Patients Experiencing the AE, 5y Max Grade 1” value [8] was 14. The “Anemia: No. of Patients Experiencing the AE, 5y Max Grade 2” value [8] was 48, the “Anemia: No. of Patients Experiencing the AE, 5y Max Grade 3” value [8] was 23 and the “Anemia: No. of Patients Experiencing the AE, 5y Max Grade 4” value [8] was 5. The “Anorexia: No. of Patients Experiencing the AE, 5y Max Grade 1” value [8] was 11, the “Anorexia: No. of Patients Experiencing the AE, 5y Max Grade 2” value [8] was 3 and the “Anorexia: No. of Patients Experiencing the AE, 5y Max Grade 3” value [8] was 1. For the same compound, the “Anorexia: No. of Patients Experiencing the AE, 5y Max Grade 4” value [8] was 0, the “Constipation: No. of Patients Experiencing the AE, 5y Max Grade 1” value [8] was 6 and the “Constipation: No. of Patients Experiencing the AE, 5y Max Grade 2” value [8] was 2. The “Constipation: No. of Patients Experiencing the AE, 5y Max Grade 3” value [8] was 1, the “Constipation: No. of Patients Experiencing the AE, 5y Max Grade 4” value [8] was 0 and the “Diarrhea: No. of Patients Experiencing the AE, 5y Max Grade 1” value [8] was 43. For the same compound, the “Diarrhea: No. of Patients Experiencing the AE, 5y Max Grade 2” value [8] was 21, the “Diarrhea: No. of Patients Experiencing the AE, 5y Max Grade 3” value [8] was 10 and the “Diarrhea: No. of Patients Experiencing the AE, 5y Max Grade 4” value [8] was 3. For the same compound, the “Dyspepsia: No. of Patients Experiencing the AE, 5y Max Grade 1” value [8] was 6, the “Dyspepsia: No. of Patients Experiencing the AE, 5y Max Grade 2” value [8] was 1 and the “Dyspepsia: No. of Patients Experiencing the AE, 5y Max Grade 3” value [8] was 0. The “Dyspepsia: No. of Patients Experiencing the AE, 5y Max Grade 4” value [8] was 0, the “Fatigue: No. of Patients Experiencing the AE, 5y Max Grade 1” value [8] was 23 and the “Fatigue: No. of Patients Experiencing the AE, 5y Max Grade 2” value [8] was 8. The “Fatigue: No. of Patients Experiencing the AE, 5y Max Grade 3” value [8] was 2, the “Fatigue: No. of Patients Experiencing the AE, 5y Max Grade 4” value [8] was 0 and the “Fever: No. of Patients Experiencing the AE, 5y Max Grade 1” value [8] was 4. For the same compound, the “Fever: No. of Patients Experiencing the AE, 5y Max Grade 2” value [8] was 7, the “Fever: No. of Patients Experiencing the AE, 5y Max Grade 3” value [8] was 0 and the “Fever: No. of Patients Experiencing the AE, 5y Max Grade 4” value [8] was 0. For the same compound, the “Granulocytopenia: No. of Patients Experiencing the AE, 5y Max Grade 1” value [8] was 16, the “Granulocytopenia: No. of Patients Experiencing the AE, 5y Max Grade 2” value [8] was 17 and the “Granulocytopenia: No. of Patients Experiencing the AE, 5y Max Grade 3” value [8] was 3. The “Granulocytopenia: No. of Patients Experiencing the AE, 5y Max Grade 4” value [8] was 5, the “Headache: No. of Patients Experiencing the AE, 5y Max Grade 1” value [8] was 4 and the “Headache: No. of Patients Experiencing the AE, 5y Max Grade 2” value [8] was 3. For the same compound, the “Headache: No. of Patients Experiencing the AE, 5y Max Grade 3” value [8] was 0, the “Headache: No. of Patients Experiencing the AE, 5y Max Grade 4” value [8] was 0 and the “Infection: No. of Patients Experiencing the AE, 5y Max Grade 1” value [8] was 4. For the same compound, the “Infection: No. of Patients Experiencing the AE, 5y Max Grade 2” value [8] was 3, the “Infection: No. of Patients Experiencing the AE, 5y Max Grade 3” value [8] was 0 and the “Infection: No. of Patients Experiencing the AE, 5y Max Grade 4” value [8] was 0. The “Leukopenia: No. of Patients Experiencing the AE, 5y Max Grade 1” value [8] was 26, the “Leukopenia: No. of Patients Experiencing the AE, 5y Max Grade 2” value [8] was 31 and the “Leukopenia: No. of Patients Experiencing the AE, 5y Max Grade 3” value [8] was 10. The “Leukopenia: No. of Patients Experiencing the AE, 5y Max Grade 4” value [8] was 2, the “Mucositis: No. of Patients Experiencing the AE, 5y Max Grade 1” value [8] was 23 and the “Mucositis: No. of Patients Experiencing the AE, 5y Max Grade 2” value [8] was 15. For the same compound, the “Mucositis: No. of Patients Experiencing the AE, 5y Max Grade 3” value [8] was 11, the “Mucositis: No. of Patients Experiencing the AE, 5y Max Grade 4” value [8] was 3 and the “Nausea: No. of Patients Experiencing the AE, 5y Max Grade 1” value [8] was 59. For the same compound, the “Nausea: No. of Patients Experiencing the AE, 5y Max Grade 2” value [8] was 19, the “Nausea: No. of Patients Experiencing the AE, 5y Max Grade 3” value [8] was 12 and the “Nausea: No. of Patients Experiencing the AE, 5y Max Grade 4” value [8] was 1. The “Pain Inject Site: No. of Patients Experiencing the AE, 5y Max Grade 1” value [8] was 24, the “Pain Inject Site: No. of Patients Experiencing the AE, 5y Max Grade 2” value [8] was 0 and the “Pain Inject Site: No. of Patients Experiencing the AE, 5y Max Grade 3” value [8] was 0. For the same compound, the “Pain Inject Site: No. of Patients Experiencing the AE, 5y Max Grade 4” value [8] was 0, the “Pain, Abdominal: No. of Patients Experiencing the AE, 5y Max Grade 1” value [8] was 4 and the “Pain, Abdominal: No. of Patients Experiencing the AE, 5y Max Grade 2” value [8] was 3. The “Pain, Abdominal: No. of Patients Experiencing the AE, 5y Max Grade 3” value [8] was 1, the “Pain, Abdominal: No. of Patients Experiencing the AE, 5y Max Grade 4” value [8] was 0 and the “Rash: No. of Patients Experiencing the AE, 5y Max Grade 1” value [8] was 26. The “Rash: No. of Patients Experiencing the AE, 5y Max Grade 2” value [8] was 15, the “Rash: No. of Patients Experiencing the AE, 5y Max Grade 3” value [8] was 9 and the “Rash: No. of Patients Experiencing the AE, 5y Max Grade 4” value [8] was 3. The “Somnolence: No. of Patients Experiencing the AE, 5y Max Grade 1” value [8] was 7, the “Somnolence: No. of Patients Experiencing the AE, 5y Max Grade 2” value [8] was 2 and the “Somnolence: No. of Patients Experiencing the AE, 5y Max Grade 3” value [8] was 0. For the same compound, the “Somnolence: No. of Patients Experiencing the AE, 5y Max Grade 4” value [8] was 0, the “Stomatitis: No. of Patients Experiencing the AE, 5y Max Grade 1” value [8] was 32 and the “Stomatitis: No. of Patients Experiencing the AE, 5y Max Grade 2” value [8] was 20. The “Stomatitis: No. of Patients Experiencing the AE, 5y Max Grade 3” value [8] was 7, the “Stomatitis: No. of Patients Experiencing the AE, 5y Max Grade 4” value [8] was 1 and the “Thrombocytopenia: No. of Patients Experiencing the AE, 5y Max Grade 1” value [8] was 26. For the same compound, the “Thrombocytopenia: No. of Patients Experiencing the AE, 5y Max Grade 2” value [8] was 31, the “Thrombocytopenia: No. of Patients Experiencing the AE, 5y Max Grade 3” value [8] was 16 and the “Thrombocytopenia: No. of Patients Experiencing the AE, 5y Max Grade 4” value [8] was 21. The “Vomit: No. of Patients Experiencing the AE, 5y Max Grade 1” value [8] was 32, the “Vomit: No. of Patients Experiencing the AE, 5y Max Grade 2” value [8] was 24 and the “Vomit: No. of Patients Experiencing the AE, 5y Max Grade 3” value [8] was 12. For the same compound, the “Vomit: No. of Patients Experiencing the AE, 5y Max Grade 4” value [8] was 5.
